Experimental data from US10052310B2, “Separase inhibitors and uses thereof” (Baylor College of Medicine, priority 2013, dated 2018).

Key:
Assay type in all cases: cell-based
[1] = tested on: Separase overexpressing primary pediatric glioblastoma samples; assay: MTT cytotoxicity assays in primary pediatric glioblastoma samples; details: two Separase overexpressing primary pediatric glioblastoma samples
Description: FIG. 10 provides data relating to separase overexpression in Pediatric glioblastoma (GBM) and the effect of Sepin-1 in inhibiting the growth of glioblastoma cells in vitro and in vivo. […] SCID-beige mice after two weeks of transplantation were treated at a dose of 10 mg/kg daily ip for 5 days a week for 4 weeks with either Sepin-1 or vehicle (n=6/group).

[2] = tested on: LAN-5; assay: MTT in vitro cytotoxicity assay; details: Homo sapiens, LA-N-5, LAN-5, Neuroblastoma, 72 h, read-out: IC50 growth inhibition
Description: (§1) The inhibitory effect of Sepin-1 on cell growth was assayed using the 3-(4,5-dimethylthiazol-2yl)-2,5-diphenyl-tetrazolium bromide (MTT) colorimetric dye reduction method (Cancer Chemother. Pharmacol., 2006, 58, 13-23). One hundred thirty-five μl of exponentially growing cancer cells were plated at a density of 0.4-1.0×10^5 cells/well in a 96-well microtiter plate. After 16 h, Sepin-1 at specified concentrations was added to each well. After 72 h of continuous drug exposure, 15 μl of 5 mg/ml MTT was added to each well and the plates were incubated for 4 h at 37° C. Medium was replaced with 150 μl of DMSO to solubilize the formazan, and the optical density (OD) was measured at 550 nm using a microplate spectrophotometer (Anthos Analytical, Durham, N.C., USA). Cell viability was calculated by subtracting the background OD of media alone from the OD of test wells, then dividing by the OD of the control (untreated) wells. Replicates of 3 wells were used for each drug concentration. The in vitro cytotoxicity assay was repeated once and the IC50 reported was the average of two independent experiments.

[3] = tested on: MDAMB231; assay: MTT in vitro cytotoxicity assay; details: Homo sapiens, MDA-MB-231, MDAMB231, Breast, 72 h, read-out: IC50 growth inhibition
Description: as §1

[4] = tested on: CHP212; assay: MTT in vitro cytotoxicity assay; details: Homo sapiens, CHP-212, CHP212, Neuroblastoma, 72 h, read-out: IC50 growth inhibition
Description: as §1

[5] = tested on: HL60; assay: MTT in vitro cytotoxicity assay; details: Homo sapiens, HL-60, HL60, Leukemia, 72 h, read-out: IC50 growth inhibition
Description: as §1

[6] = tested on: SK-BR-3; assay: MTT in vitro cytotoxicity assay; details: Homo sapiens, SK-BR-3, Breast, 72 h, read-out: IC50 growth inhibition
Description: as §1

[7] = tested on: SHEP; assay: MTT in vitro cytotoxicity assay; details: Homo sapiens, Neuroblastoma, 72 h, read-out: IC50 growth inhibition
Description: as §1

[8] = tested on: A549; assay: MTT in vitro cytotoxicity assay; details: Homo sapiens, A549, Lung, 72 h, read-out: IC50 growth inhibition
Description: as §1

[9] = tested on: Raji; assay: MTT in vitro cytotoxicity assay; details: Homo sapiens, Leukemia, 72 h, read-out: IC50 growth inhibition
Description: as §1

[10] = tested on: HBL100; assay: MTT in vitro cytotoxicity assay; details: Homo sapiens, HBL-100, HBL100, Breast, 72 h, read-out: IC50 growth inhibition
Description: as §1

[11] = tested on: SK-N-BE(2); assay: MTT in vitro cytotoxicity assay; details: Homo sapiens, SKNBE2, Neuroblastoma, 72 h, read-out: IC50 growth inhibition
Description: as §1

[12] = tested on: CHLA-02-ATRT; assay: MTT in vitro cytotoxicity assay; details: Homo sapiens, Brain, 72 h, read-out: IC50 growth inhibition
Description: as §1

[13] = tested on: MDA436; assay: MTT in vitro cytotoxicity assay; details: Homo sapiens, MDA436, Breast, 72 h, read-out: IC50 growth inhibition
Description: as §1

[14] = tested on: Jurkat; assay: MTT in vitro cytotoxicity assay; details: Homo sapiens, Leukemia, 72 h, read-out: IC50 growth inhibition
Description: as §1

[15] = tested on: TT; assay: MTT in vitro cytotoxicity assay; details: Homo sapiens, Thyroid, 72 h, read-out: IC50 growth inhibition
Description: as §1

[16] = tested on: T47D; assay: MTT in vitro cytotoxicity assay; details: Homo sapiens, Breast, 72 h, read-out: IC50 growth inhibition
Description: as §1

[17] = tested on: HCT116; assay: MTT in vitro cytotoxicity assay; details: Homo sapiens, HCT-116, HCT116, Colon, 72 h, read-out: IC50 growth inhibition
Description: as §1

[18] = tested on: JM1; assay: MTT in vitro cytotoxicity assay; details: Homo sapiens, JM1, Leukemia, 72 h, read-out: IC50 growth inhibition
Description: as §1

[19] = tested on: KCNR; assay: MTT in vitro cytotoxicity assay; details: Homo sapiens, Neuroblastoma, 72 h, read-out: IC50 growth inhibition
Description: as §1

[20] = tested on: NGP; assay: MTT in vitro cytotoxicity assay; details: Homo sapiens, Neuroblastoma, 72 h, read-out: IC50 growth inhibition
Description: as §1

[21] = tested on: IMR-32; assay: MTT in vitro cytotoxicity assay; details: Homo sapiens, IMR-32, Neuroblastoma, 72 h, read-out: IC50 growth inhibition
Description: as §1

[22] = tested on: SK-N-AS; assay: MTT in vitro cytotoxicity assay; details: Homo sapiens, Neuroblastoma, 72 h, read-out: IC50 growth inhibition
Description: as §1

[23] = tested on: Molt4; assay: MTT in vitro cytotoxicity assay; details: Homo sapiens, MOLT-4, Molt4, Leukemia, 72 h, read-out: IC50 growth inhibition
Description: as §1

[24] = tested on: MCF10F; assay: MTT in vitro cytotoxicity assay; details: Homo sapiens, MCF-10F, Breast, 72 h, read-out: IC50 growth inhibition
Description: as §1

[25] = tested on: SY5Y; assay: MTT in vitro cytotoxicity assay; details: Homo sapiens, Neuroblastoma, 72 h, read-out: IC50 growth inhibition
Description: as §1

CC1(C)[N+]([O-])=c2ccc([N+](=O)[O-])cc2=[N+]1[O-] [Sepin-1, 2,2-dimethyl-5-nitro-2H-benzimidazole-1,3 dioxide]
cell death in MTT cytotoxicity assays [1]: efficient cell death | IC50 [2]: 5 µM | IC50 [3]: 21.5 µM | IC50 [4]: 9 µM | IC50 [5]: 9 µM | IC50 [6]: 9 µM | IC50 [7]: 62.5 µM | IC50 [8]: 53.1 µM | IC50 [9]: 4.4 µM | IC50 [10]: 11.5 µM | IC50 [11]: 8.6 µM | IC50 [12]: 7.6 µM | IC50 [13]: 17.8 µM | IC50 [14]: 14 µM | IC50 [15]: 33.5 µM | IC50 [16]: 30.8 µM | IC50 [17]: 16 µM | IC50 [18]: 1 µM | IC50 [19]: 4.9 µM | IC50 [20]: 7.8 µM | IC50 [21]: 4.8 µM | IC50 [22]: 17.1 µM | IC50 [23]: 3.2 µM | IC50 [24]: 48.4 µM | IC50 [25]: 4.9 µM
